# From PubChem BioAssay (NCI)
#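 These data come from cells grown in 96-well plates and exposed to compound for 48 hours at five concentrations. Abbreviation: GI50, concentration required for 50% inhibition of growth. At the TGI there is no net growth.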
# Legend:
# Assay in all cases: growth of human tumour cells (NCI), 48 h
# [1] = tested on: KM12 colon
# [2] = tested on: BT-549 breast
# [3] = tested on: UO-31 renal
# [4] = tested on: HOP-92 NSCLC
# [5] = tested on: CAKI-1 renal
# [6] = tested on: HS 578T breast
# [7] = tested on: SK-OV-3 ovarian
# [8] = tested on: NCI-H226 lung
# [9] = tested on: COLO 205 colon
# [10] = tested on: EKVX NSCLC
# [11] = tested on: RXF 393 renal
# [12] = tested on: OVCAR-8 ovarian
# [13] = tested on: RPMI-8226 leukemia
# [14] = tested on: ACHN renal
# [15] = tested on: M14 melanoma
# [16] = tested on: MCF7 breast
# [17] = tested on: MALME-3M melanoma
# [18] = tested on: SF-539 CNS
# [19] = tested on: UACC-257 melanoma
# [20] = tested on: NCI-H23 lung
# [21] = tested on: SK-MEL-5 melanoma
# [22] = tested on: T-47D breast
# [23] = tested on: TK-10 renal
# [24] = tested on: NCI/ADR-RES ovarian
# [25] = tested on: NCI-H460 lung
# [26] = tested on: OVCAR-3 ovarian
# [27] = tested on: A549 NSCLC
# [28] = tested on: CCRF-CEM leukemia
# [29] = tested on: MDA-MB-231 breast
# [30] = tested on: HCT-15 colon
# [31] = tested on: SF-295 CNS
# [32] = tested on: K-562 leukemia
# [33] = tested on: SNB-19 CNS
# [34] = tested on: DU-145 prostate
# [35] = tested on: LOX IMVI melanoma
# [36] = tested on: U251 CNS
# [37] = tested on: MDA-MB-435
# [38] = tested on: PC-3 prostate
# [39] = tested on: SK-MEL-28 melanoma
# [40] = tested on: OVCAR-4 ovarian
# [41] = tested on: MOLT-4 leukemia
# [42] = tested on: A498 renal
# [43] = tested on: UACC-62 melanoma
# [44] = tested on: 786-0 renal
# [45] = tested on: HT29 colon
# [46] = tested on: OVCAR-5 ovarian
# [47] = tested on: HCT-116 colon
# [48] = tested on: SK-MEL-2 melanoma
# [49] = tested on: HL-60(TB) leukemia
# [50] = tested on: IGROV1 ovarian
# [51] = tested on: HOP-62 NSCLC
# [52] = tested on: SNB-75 CNS
# [53] = tested on: SN12C renal
# [54] = tested on: NCI-H522 lung
# [55] = tested on: HCC-2998 colon
# [56] = tested on: SR leukemia
# [57] = tested on: SF-268 CNS
# [58] = tested on: SW-620 colon
structure (smiles),measurement,setting,value
O=C(N/N=C\c1cc(Cl)ccc1O)c1ccncc1,GI50,[1],4.61 µM
same,TGI,[1],> 100 µM
same,GI50,[2],9.18 µM
same,TGI,[2],> 100 µM
same,GI50,[3],2.18 µM
same,TGI,[3],> 100 µM
same,GI50,[4],3.47 µM
same,TGI,[4],61.3 µM
same,GI50,[5],1.65 µM
same,TGI,[5],> 100 µM
same,GI50,[6],26 µM
same,TGI,[6],> 100 µM
same,GI50,[7],5.39 µM
same,TGI,[7],> 100 µM
same,GI50,[8],2.61 µM
same,TGI,[8],59 µM
same,GI50,[9],4.21 µM
same,TGI,[9],> 100 µM
same,GI50,[10],27.3 µM
same,TGI,[10],> 100 µM
same,GI50,[11],2.43 µM
same,TGI,[11],> 100 µM
same,GI50,[12],3.39 µM
same,TGI,[12],> 100 µM
same,GI50,[13],8.85 µM
same,TGI,[13],> 100 µM
same,GI50,[14],1.91 µM
same,TGI,[14],> 100 µM
same,GI50,[15],3.05 µM
same,TGI,[15],23.4 µM
same,GI50,[16],2.05 µM
same,TGI,[16],> 100 µM
same,GI50,[17],14.6 µM
same,TGI,[17],> 100 µM
same,GI50,[18],3.97 µM
same,TGI,[18],> 100 µM
same,GI50,[19],4.16 µM
same,TGI,[19],> 100 µM
same,GI50,[20],4.01 µM
same,TGI,[20],> 100 µM
same,GI50,[21],1.96 µM
same,TGI,[21],19 µM
same,GI50,[22],2.1 µM
same,TGI,[22],> 100 µM
same,GI50,[23],17.6 µM
same,TGI,[23],> 100 µM
same,GI50,[24],2.01 µM
same,TGI,[24],> 100 µM
same,GI50,[25],1.46 µM
same,TGI,[25],> 100 µM
same,GI50,[26],0.617 µM
same,TGI,[26],> 100 µM
same,GI50,[27],12.9 µM
same,TGI,[27],> 100 µM
same,GI50,[28],2.15 µM
same,TGI,[28],> 100 µM
same,GI50,[29],3.67 µM
same,TGI,[29],> 100 µM
same,GI50,[30],0.576 µM
same,TGI,[30],> 100 µM
same,GI50,[31],5.29 µM
same,TGI,[31],> 100 µM
same,GI50,[32],4.55 µM
same,TGI,[32],> 100 µM
same,GI50,[33],5.95 µM
same,TGI,[33],> 100 µM
same,GI50,[34],4.63 µM
same,TGI,[34],> 100 µM
same,GI50,[35],1.56 µM
same,TGI,[35],> 100 µM
same,GI50,[36],1.86 µM
same,TGI,[36],> 100 µM
same,GI50,[37],11.7 µM
same,TGI,[37],> 100 µM
same,GI50,[38],3.69 µM
same,TGI,[38],> 100 µM
same,GI50,[39],3.05 µM
same,TGI,[39],> 100 µM
same,GI50,[40],0.967 µM
same,TGI,[40],73.5 µM
same,GI50,[41],2.91 µM
same,TGI,[41],> 100 µM
same,GI50,[42],15.2 µM
same,TGI,[42],> 100 µM
same,GI50,[43],1.48 µM
same,TGI,[43],13.7 µM
same,GI50,[44],2.6 µM
same,TGI,[44],32.2 µM
same,GI50,[45],5.9 µM
same,TGI,[45],> 100 µM
same,GI50,[46],25.5 µM
same,TGI,[46],> 100 µM
same,GI50,[47],1.63 µM
same,TGI,[47],> 100 µM
same,GI50,[48],19.5 µM
same,TGI,[48],> 100 µM
same,GI50,[49],3.02 µM
same,TGI,[49],> 100 µM
same,GI50,[50],6.16 µM
same,TGI,[50],> 100 µM
same,GI50,[51],2.97 µM
same,TGI,[51],> 100 µM
same,GI50,[52],9.29 µM
same,TGI,[52],> 100 µM
same,GI50,[53],4 µM
same,TGI,[53],> 100 µM
same,GI50,[54],2.69 µM
same,TGI,[54],22.4 µM
same,GI50,[55],3.03 µM
same,TGI,[55],> 100 µM
same,GI50,[56],2.85 µM
same,TGI,[56],> 100 µM
same,GI50,[57],2.69 µM
same,TGI,[57],> 100 µM
same,GI50,[58],3.42 µM
same,TGI,[58],> 100 µM
